Test results from patent US9498455B2, “Cinacalcet and neuroblastic tumours” (HOSPITAL SAINT JOAN DE DEU, priority 2012, dated 2016).

Tests used:
SK-N-JD = assay: Cell viability (MTS) after 72 hours, SK-N-JD neuroblastoma cell line; type: cell-based; conditions: no unit in table, tested concentrations given in μM, read-out: IC50 (drug concentration causing the death of 50% of the cells with respect to the control)
Procedure: (§1) 5×10^3 cells of each cell line (LAN-1, SK-N-BE(2)c, LA1-55n, LA1-5s, SK-N-LP, SK-N-JD, SK-N-AS) were seeded in 96-well plates (6 replicates per condition). The initial medium (RPMI 10% FBS) was removed the next day and substituted with the same medium containing several concentrations (100 μM, 65 μM, 30 μM, 25 μM, 20 μM, 15 μM, 10 μM, 5 μM, 3 μM, 1 μM, 0.3 μM) of cinacalcet (Selleck Biochemicals) or NPS R-568 (Tocris) or equivalent amounts of DMSO (Sigma-Aldrich). Cell viability was evaluated after 72 hours by means of quantifying the percentage of viable cells by means of the Promega CellTiter 96(r) Aqueous One Solution Cell Proliferation Assay (MTS) system. It was thus observed that both drugs induced a decrease in cell viability in the 7 cell lines examined (FIG. 2), and that in 5 of said cell lines the IC50 (drug concentration causing the death of 50% of the cells with respect to the control) of cinacalcet was less than that of NPS R-568 in a statistically significant manner (Table 1). In the case of SK-N-AS and LA1-55n cell lines, the difference in the effect promoted by both drugs was not statistically significant (Table 1).

LA1-5s = assay: Cell viability (MTS) after 72 hours, LA1-5s neuroblastoma cell line; type: cell-based; conditions: no unit in table, tested concentrations given in μM, read-out: IC50 (drug concentration causing the death of 50% of the cells with respect to the control)
Procedure: as §1

SK-N-LP = assay: Cell viability (MTS) after 72 hours, SK-N-LP neuroblastoma cell line; type: cell-based; conditions: no unit in table, tested concentrations given in μM, read-out: IC50 (drug concentration causing the death of 50% of the cells with respect to the control)
Procedure: as §1

SK-N-AS = assay: Cell viability (MTS) after 72 hours, SK-N-AS neuroblastoma cell line; type: cell-based; conditions: Homo sapiens, no unit in table, tested concentrations given in μM, read-out: IC50 (drug concentration causing the death of 50% of the cells with respect to the control)
Procedure: as §1

LAN-1 = assay: Cell viability (MTS) after 72 hours, LAN-1 neuroblastoma cell line; type: cell-based; conditions: LAN1, LAN-1, 72 hours, no unit in table, tested concentrations given in μM, read-out: IC50 (drug concentration causing the death of 50% of the cells with respect to the control)
Procedure: as §1

LA1-55n = assay: Cell viability (MTS) after 72 hours, LA1-55n neuroblastoma cell line; type: cell-based; conditions: no unit in table, tested concentrations given in μM, read-out: IC50 (drug concentration causing the death of 50% of the cells with respect to the control)
Procedure: as §1

SK-N-BE(2)C = assay: Cell viability (MTS) after 72 hours, SK-N-BE(2)c neuroblastoma cell line; type: cell-based; conditions: no unit in table, tested concentrations given in μM, read-out: IC50 (drug concentration causing the death of 50% of the cells with respect to the control)
Procedure: as §1

[1] = system: SK-N-LP cells with overexpression of CASR; assay: CASR activation by calcium after serum deprivation, SK-N-LP cells with overexpression of CASR; type: cell-based
Procedure: (§2) Wild type SK-N-LP cells stably transfected with pCMV-GFP or pCMV-CASR-GFP (1×10^6) in RPMI 10% FBS were seeded in P100 plates. The medium was substituted the next day with a serum-free medium (calcium-free DMEM supplemented with 0.2% bovine albumin, 4 mM L-glutamine and 0.5 mM CaCl2). This was maintained for 16 hours before substituting it with the same medium supplemented or not supplemented with up to 3 mM CaCl2. […] In the latter cell lines, indications of cell death were detected, but the cells continued to proliferate until reaching confluence, whereas cells with overexpression of CASR completely disappeared in 5 days.
In order to determine if the cell death process occurred by means of apoptosis, total proteins of wild type SK-N-LP cells (WT) and cells with overexpression of CASR (CASR) were extracted 24 and 48 hours after exposure to this model. The proteins were subjected to SDS-PAGE gel electrophoresis, transferred to a nitrocellulose membrane and incubated with specific antibodies to detect activated caspase 3 and c-PARP (Cell Signaling). Suitable secondary antibodies labeled with peroxidase were used, and it was developed with the Amersham ECL system.

wild type SK-N-LP cells = assay: CASR activation by calcium after serum deprivation, wild type or pCMV-GFP SK-N-LP cells; type: cell-based; conditions: 3 mM CaCl2 after 16 hours serum deprivation; wild type or pCMV-GFP transfected
Procedure: as §2

[2] = system: Xenografts of LAN-1 cell line; assay: In vivo model of neuroblastoma, LAN-1 xenografts, morphological examination; set-up: species or system athymic nu/nu mice; conditions: LAN-1 xenograft, oral 100 mg/kg 6 days a week from day 12, sacrificed after 40 days
Procedure: (§3) Xenografts of LAN-1 and SK-N-LP cell lines were generated for which aliquots containing 10×10^6 cells from said cell lines were inoculated subcutaneously in 4-6 week old female athymic nu/nu mice (Charles Rivers). Starting from day 12, when the forming tumor could already be measured using Vernier calipers, oral treatment was started 6 days a week with cinacalcet 100 mg/kg (FIGS. 3C-3F) and with the carrier as a negative control (FIGS. 3A and 3B). The tumor volume was measured every 2-3 days. The mice were sacrificed after 40 days. Each tumor was weighed before being sectioned into two halves: one half was frozen in liquid nitrogen for expression analysis and the other half was fixed and embedded in paraffin for morphological examination and immunohistochemical analyses.

[3] = system: Xenografts of SK-N-LP cell line; assay: In vivo model of neuroblastoma, SK-N-LP xenografts, morphological examination; set-up: species or system athymic nu/nu mice; conditions: SK-N-LP xenograft, oral 100 mg/kg 6 days a week from day 12, sacrificed after 40 days
Procedure: as §3

Row | SMILES | IC50 (SK-N-JD) [µM] | IC50 (LA1-5s) [µM] | IC50 (SK-N-LP) [µM] | IC50 (SK-N-AS) [µM] | IC50 (LAN-1) [µM] | IC50 (LA1-55n) [µM] | IC50 (SK-N-BE(2)C) [µM] | Cell death (morphology) ([1]; 3 mM CaCl2 after 16 hours serum deprivation) | Caspase 3 activation and PARP cleavage (Western blot) ([1]; 24 and 48 hours after exposure to 3 mM CaCl2 model) | Cell death (morphology) (wild type SK-N-LP cells) | Morphological analysis of the xenografts: cell death [2] | Morphological analysis of the xenografts: differentiation [2] | Morphological analysis of the xenografts: cell death [3] | Morphological analysis of the xenografts: differentiation [3]
1 | COc1cccc([C@@H](C)NCCCc2ccccc2Cl)c1 [NPS R-568] | 25.8 | 34.5 | 22.4 | 15.1 | 24.8 | 11.4 | 16.6 |  |  |  |  |  |  | 
2 | [Ca+2].[Cl-].[Cl-] [CaCl2] |  |  |  |  |  |  |  | suffered cell death | accompanied by caspase 3 activation and PARP cleavage | hardly appreciable |  |  |  | 
3 | C[C@@H](NCCCc1cccc(C(F)(F)F)c1)c1cccc2ccccc12 [Cinacalcet, cinacalcet] | 10.9 | 16.7 | 10.3 | 10.3 | 17.2 | 10.5 | 10.7 |  |  |  | large areas with necrosis and/or apoptosis | morphological signs of differentiation in viable cells | large areas with necrosis and/or apoptosis | morphological signs of differentiation in viable cells
